“Also recorded” adds a separate entry of the source.

The test system of data set [1] is mushroom tyrosinase. Put plainly: Oximetry: oxidation of substrates by tyrosinase. Format: biochemical. Conditions: 100 μM substrate, 165 units of tyrosinase/ml, room temperature; compared with tyrosine.
Data set [2] deals with human melanoma (C32, G361 and STMl1la) and nonmelanoma derived cell lines (Caki-2 and CHO). Format: cell-based.
Data set [3] concerns tyrosinase. Kind of data set: Release of drug from prodrug upon treatment with tyrosinase (TLC, GCMS). Format: biochemical. Conditions: DMSO/phosphate buffer pH 7.2, 25° C., 1 hour; TLC and GCMS.

Consider `COc1ccc(O)cc1` [4-Hydroxyanisole, 4-hydroxyanisole], for which, in data set [1], the “oxidation by tyrosinase (utilization of oxygen with respect to time)” value (“oxidation by tyrosinase” below) is “oxidised, but at a lower rate than tyrosine”.
As usually defined, the melting point is the temperature, or range, at which the solid turns liquid. In the case of `O=C(NCCc1ccc(O)c(O)c1)Oc1ccc(N(CCCl)CCCl)cc1` [Compound A, N-(N-bis-chlorethyl-4-amino-phenyloxycarbonyl)-3-hydroxy-tyramine], the melting point was 80 °C (dec.). In addition, the “oxidation by tyrosinase” value in data set [1] is given as “oxidised by tyrosinase, although the rate of the reaction was lower than for the normal substrate”. In addition, the “relative toxicity (inverse of the IC50)” value in data set [2] is on record as “relatively non-toxic; also recorded: increasing toxicity with tyrosinase activity”.
`NCCc1ccc(O)c(O)c1` [Compound B]: the “relative toxicity (inverse of the IC50)” value in data set [2] is listed as “essentially non-toxic”.
Regarding `CC(=O)N[C@@H](Cc1ccc(O)cc1)C(=O)O` [N-acetyl tyrosine], in data set [1], the “oxidation by tyrosinase” value is “oxidised, but at a lower rate than tyrosine”.
For `O=C(NCCc1ccc(O)cc1)Oc1ccc(N(CCCl)CCCl)cc1` [Prodrug (1)], in data set [3], the “release of mustard drug upon tyrosinase treatment” value is “a component of identical Rf to the authentic mustard drug had been produced”.
